# Entries after “also recorded” stand apart in the source; their conditions may differ.
# Columns and labels:
# T7 DNA polymerase = T7 DNA polymerase (Escherichia phage T7, UniProt P00581); conditions: Procedure 2; for incorporation into DNA by T7 DNA polymerase in primer extension: template with maximum four dTTP/dUTP sites
# Protocol: (§1) Aliquots containing 10 ng of the kinased 12-mer described in procedure 1 were combined with 40 ng of an 18-mer oligonucleotide (5′-[…]-3′; SEQ ID NO: 2) in 8 μL of T-7 buffer (20 mM MgCl2, 50 mM NaCl, 40 mM Tris, pH 7.5) or Klenow buffer (5 mM MgCl2, 4 mM DTT, 35 mM Tris, pH 7.5). To each reaction was added 1 μL of a solution containing 100 μM each of dATP and fluorescein 12-dUTP. The reaction contents were heated to 95° C. for 2 minutes and allowed to cool to room temperature. Five units (1 μL) of the appropriate polymerase were added and the reaction mixtures were incubated at 37° C. for 10 minutes. Control reactions were run which contained no polymerase. Polymerase activity was terminated by addition of 3 μL of 1M EDTA and the extension products were separated by electrophoresis using a 20% acrylamide gel and the results visualized by autoradiography. A measurement of the degree of polymerase-catalyzed primer extension obtained in the presence of modified nucleotide analogs according to the invention can be determined by substituting the modified nucleotide (1 μL of 100 μM) for fluorescein 12-dUTP in procedure 2.
# [1] = system: exonuclease free Klenow polymerase; conditions: Procedure 2, results not shown
# Protocol: as §1
# [2] = target: T1, terminal deoxynucleotide transferase (TdT) (Bos taurus, UniProt P06526); experiment: Tailing / 3'-end labeling of a 12-mer oligonucleotide with terminal transferase (Procedure 1); assay type: biochemical; conditions: for number of contiguous modified bases added to the 3' terminus: TdT-catalyzed end labeling
# T1 construct: purchased Stratagene (La Jolla, Calif.)
# Protocol: A 12-mer oligonucleotide (5′-[…]-3′; SEQ ID NO: 1) was 5′ labeled with ^32P ATP and T4 Polynucleotide Kinase according to established methods (Roychoudhury and Wu, 1980; Sambrook, Fritch, and Maniatis, 1989). Aliquots of the mixture containing 10 ng of kinased oligo were combined with 100 pmol of fluorescein 12-dUTP and 5 units of terminal deoxynucleotide transferase (TdT) in 100 mM potassium cacodylate, 2 mM CoCl2, pH 7.2 (final volume of 10 μL). […] The reactions were quenched by the addition of loading dye and 4 μL aliquots were loaded onto a sequencing gel (14″×17″, poured with 20% acrylamide/7M urea/1×TBE), electrophoresed for 3 hours at 55 watts/[…] and exposed to X-ray film.
# Taq DNA polymerase = target: T2, Taq DNA polymerase (Thermus aquaticus, UniProt P19821); experiment: Polymerase primer extension assay, 12-mer primer/18-mer template (Procedure 2); assay type: biochemical; conditions: template with maximum four dTTP/dUTP sites
# T2 construct: purchased Stratagene (La Jolla, Calif.)
# Protocol: as §1
# Klenow polymerase = target: T3, Klenow polymerase (Escherichia coli, UniProt P00582); experiment: Polymerase primer extension assay (Procedure 2); assay type: biochemical, E. coli; conditions: Procedure 2, results not shown
# T3 construct: Incorporation results using SAc-dUTP and the Klenow fragment of DNA polymerase I following Procedure 3
# Protocol: as §1
# T7 DNA polymerase, sequence (P00581 whole entry): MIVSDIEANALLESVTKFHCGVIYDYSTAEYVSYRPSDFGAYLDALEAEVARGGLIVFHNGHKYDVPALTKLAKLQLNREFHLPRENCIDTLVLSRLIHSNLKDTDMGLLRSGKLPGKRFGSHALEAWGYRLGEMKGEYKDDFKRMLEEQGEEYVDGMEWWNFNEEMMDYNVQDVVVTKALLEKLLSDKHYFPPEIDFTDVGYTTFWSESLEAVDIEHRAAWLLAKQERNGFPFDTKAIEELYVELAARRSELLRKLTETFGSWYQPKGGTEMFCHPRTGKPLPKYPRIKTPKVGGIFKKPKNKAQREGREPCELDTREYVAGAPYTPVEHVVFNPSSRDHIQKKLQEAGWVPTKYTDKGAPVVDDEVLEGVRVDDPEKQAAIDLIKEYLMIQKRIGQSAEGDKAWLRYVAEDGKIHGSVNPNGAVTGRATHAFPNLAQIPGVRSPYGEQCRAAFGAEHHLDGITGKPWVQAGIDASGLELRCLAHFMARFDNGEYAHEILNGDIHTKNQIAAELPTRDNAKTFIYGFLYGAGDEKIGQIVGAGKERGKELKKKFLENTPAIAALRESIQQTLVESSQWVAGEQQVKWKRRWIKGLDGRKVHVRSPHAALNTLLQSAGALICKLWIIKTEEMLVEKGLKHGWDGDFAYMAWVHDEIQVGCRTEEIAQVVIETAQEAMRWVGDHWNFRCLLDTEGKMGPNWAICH
# T7 DNA polymerase, sequence (P0AA25 2-109, further chain): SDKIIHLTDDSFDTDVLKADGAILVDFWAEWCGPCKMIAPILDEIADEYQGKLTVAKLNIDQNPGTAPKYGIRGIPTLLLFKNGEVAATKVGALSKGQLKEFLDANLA
# T2 sequence (P19821 whole entry): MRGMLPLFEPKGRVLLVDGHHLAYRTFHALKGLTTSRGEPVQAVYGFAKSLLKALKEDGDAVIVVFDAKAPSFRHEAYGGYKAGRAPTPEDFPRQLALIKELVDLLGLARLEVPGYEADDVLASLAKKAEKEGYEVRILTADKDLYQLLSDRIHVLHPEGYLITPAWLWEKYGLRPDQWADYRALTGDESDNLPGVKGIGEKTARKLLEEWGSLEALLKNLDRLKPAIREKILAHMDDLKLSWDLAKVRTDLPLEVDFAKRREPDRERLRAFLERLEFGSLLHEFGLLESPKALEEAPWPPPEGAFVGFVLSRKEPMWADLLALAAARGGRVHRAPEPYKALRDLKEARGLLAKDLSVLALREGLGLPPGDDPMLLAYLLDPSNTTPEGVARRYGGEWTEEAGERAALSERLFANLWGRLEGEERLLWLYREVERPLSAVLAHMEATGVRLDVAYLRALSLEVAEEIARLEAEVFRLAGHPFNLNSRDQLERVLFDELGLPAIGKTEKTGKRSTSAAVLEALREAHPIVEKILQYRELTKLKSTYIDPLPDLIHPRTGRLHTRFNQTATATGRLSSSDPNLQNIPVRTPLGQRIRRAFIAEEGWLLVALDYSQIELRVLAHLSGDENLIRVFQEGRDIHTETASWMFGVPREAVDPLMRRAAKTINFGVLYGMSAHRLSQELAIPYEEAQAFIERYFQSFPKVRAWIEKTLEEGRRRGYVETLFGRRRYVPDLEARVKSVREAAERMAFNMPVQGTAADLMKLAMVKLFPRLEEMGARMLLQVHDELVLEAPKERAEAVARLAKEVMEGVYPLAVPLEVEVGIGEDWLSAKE
# T1 sequence (P06526 whole entry): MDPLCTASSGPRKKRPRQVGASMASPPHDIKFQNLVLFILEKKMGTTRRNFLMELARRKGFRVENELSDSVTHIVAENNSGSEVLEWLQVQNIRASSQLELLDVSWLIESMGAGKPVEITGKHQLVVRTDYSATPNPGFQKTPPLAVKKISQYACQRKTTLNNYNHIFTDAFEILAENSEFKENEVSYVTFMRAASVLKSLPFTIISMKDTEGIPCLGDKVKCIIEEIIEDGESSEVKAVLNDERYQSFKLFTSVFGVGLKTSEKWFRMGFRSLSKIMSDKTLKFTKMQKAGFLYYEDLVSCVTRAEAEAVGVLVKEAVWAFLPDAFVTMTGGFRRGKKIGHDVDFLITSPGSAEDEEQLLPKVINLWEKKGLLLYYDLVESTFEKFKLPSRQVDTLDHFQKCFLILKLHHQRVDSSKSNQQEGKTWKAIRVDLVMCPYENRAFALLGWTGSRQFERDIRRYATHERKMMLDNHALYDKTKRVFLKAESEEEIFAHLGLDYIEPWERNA
# T3 sequence (P00582 324-928): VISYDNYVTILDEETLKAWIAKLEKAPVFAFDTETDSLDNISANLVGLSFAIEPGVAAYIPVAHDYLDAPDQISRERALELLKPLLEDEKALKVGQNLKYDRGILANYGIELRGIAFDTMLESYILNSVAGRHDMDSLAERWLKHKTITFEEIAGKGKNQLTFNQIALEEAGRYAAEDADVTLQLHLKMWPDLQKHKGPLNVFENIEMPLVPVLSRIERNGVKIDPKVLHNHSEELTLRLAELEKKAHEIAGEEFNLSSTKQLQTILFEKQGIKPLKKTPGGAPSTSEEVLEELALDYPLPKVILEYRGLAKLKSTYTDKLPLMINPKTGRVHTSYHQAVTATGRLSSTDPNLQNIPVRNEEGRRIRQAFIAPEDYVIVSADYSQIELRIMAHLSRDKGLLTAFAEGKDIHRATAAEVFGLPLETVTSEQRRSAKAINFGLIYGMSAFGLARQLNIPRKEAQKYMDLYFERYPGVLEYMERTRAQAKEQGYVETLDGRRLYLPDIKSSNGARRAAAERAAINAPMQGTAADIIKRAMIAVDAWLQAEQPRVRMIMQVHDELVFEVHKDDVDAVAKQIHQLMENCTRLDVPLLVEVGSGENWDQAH
substance,measurement,setting,value
maleimido-methylcyclohexane-dUTP [MCC-dUTP],incorporation into DNA by T7 DNA polymerase in primer extension,T7 DNA polymerase,essentially the same degree of incorporation as PDP-dUTP
same,accepted as substrate by exonuclease free Klenow polymerase in primer extension,[1],accepted as a substrate
same,number of contiguous modified bases added to the 3' terminus,[2],up to 5 bases
same,incorporation into DNA by Taq DNA polymerase in primer extension,Taq DNA polymerase,essentially the same degree of incorporation as PDP-dUTP
same,accepted as substrate by Klenow polymerase in primer extension,Klenow polymerase,accepted as a substrate
pyridine dithiopropanoate-dUTP [PDP-dUTP],substrate efficiency with T7 polymerase relative to Taq polymerase,T7 DNA polymerase; smaller fragments observed in T7 reaction,reduced substrate efficiency with T7 polymerase compared to Taq polymerase
same,incorporation into DNA by T7 DNA polymerase in primer extension,T7 DNA polymerase,incorporated into DNA
same,substrate for TdT in oligonucleotide tailing / 3'-end labeling,"[2]; Procedure 1, 20% denaturing PAGE, autoradiography",substrate for TdT
same,number of contiguous modified bases added to the 3' terminus,[2],up to 10 bases
same,incorporation into DNA by Taq DNA polymerase in primer extension,Taq DNA polymerase,incorporated into DNA; also recorded: incorporated at several sites
